Earlier results on 1 compound are cited in patent US20090023693A1, “NEW DROSPIRENONE/17BETA-ESTRADIOL REGIMEN, PHARMACEUTICAL COMBINATION PRODUCT AND KIT FOR PERFORMING THIS REGIMEN” (priority 2007, published 2009).

For series [1] the following is noted: oral vs transdermal.
Series [2] deals with T1, mineralocorticoid receptor (Homo sapiens, UniProt P08235).
T1 sequence (P08235 1-984): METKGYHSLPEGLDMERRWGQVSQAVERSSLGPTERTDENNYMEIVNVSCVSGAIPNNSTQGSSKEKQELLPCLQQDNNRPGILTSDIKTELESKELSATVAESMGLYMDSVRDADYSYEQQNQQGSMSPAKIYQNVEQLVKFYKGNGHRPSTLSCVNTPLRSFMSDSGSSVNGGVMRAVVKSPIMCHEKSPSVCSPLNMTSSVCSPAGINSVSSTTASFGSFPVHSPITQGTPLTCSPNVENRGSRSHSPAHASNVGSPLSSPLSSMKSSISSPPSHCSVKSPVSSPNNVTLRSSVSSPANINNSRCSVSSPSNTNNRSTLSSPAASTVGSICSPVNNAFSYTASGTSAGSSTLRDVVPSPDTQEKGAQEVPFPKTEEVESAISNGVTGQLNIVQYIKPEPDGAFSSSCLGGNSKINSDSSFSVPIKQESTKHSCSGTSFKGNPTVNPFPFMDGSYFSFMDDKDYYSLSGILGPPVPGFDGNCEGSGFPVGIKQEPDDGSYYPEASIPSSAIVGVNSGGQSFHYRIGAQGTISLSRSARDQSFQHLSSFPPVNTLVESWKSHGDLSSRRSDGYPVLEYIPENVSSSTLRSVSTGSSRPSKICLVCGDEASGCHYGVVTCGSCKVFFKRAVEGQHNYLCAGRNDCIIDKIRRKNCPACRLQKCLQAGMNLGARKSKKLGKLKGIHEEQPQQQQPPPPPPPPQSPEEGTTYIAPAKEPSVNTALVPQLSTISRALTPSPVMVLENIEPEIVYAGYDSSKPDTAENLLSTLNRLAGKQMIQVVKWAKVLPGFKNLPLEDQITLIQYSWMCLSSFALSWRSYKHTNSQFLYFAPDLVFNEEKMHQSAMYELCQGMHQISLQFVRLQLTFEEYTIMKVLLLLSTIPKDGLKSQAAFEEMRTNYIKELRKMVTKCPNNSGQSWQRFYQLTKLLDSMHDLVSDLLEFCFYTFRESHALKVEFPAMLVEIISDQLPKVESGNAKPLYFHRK
The note with it: compared with aldosterone.

On to `C[C@]12CCC(=O)C=C1[C@@H]1C[C@@H]1[C@H]1[C@@H]3[C@@H]4C[C@@H]4[C@@]4(CCC(=O)O4)[C@@]3(C)CC[C@@H]12` [drospirenone, Drospirenone], for which the blood pressure entry (hypertensive women) is on record as “lowered”. Besides, the “salt and water retention” value (in vivo) was “reduced”. Moreover, the “bioavailabilities after oral and transdermal administration” value in series [1] is “roughly the same”. Further, in series [2], the “affinity for the mineralocorticoid receptor relative to aldosterone” value is on record as “about five times that of aldosterone”.
